From patent publication US20030096015A1, “Cytogenic/nucleogenic healing” (priority 1997, published 2003)

Test system: multiple of infections (MOI)

## OC[C@H]1O[C@@](CO)(O[C@H]2O[C@H](CO)[C@@H](O)[C@H](O)[C@H]2O)[C@@H](O)[C@@H]1O [5% Sucrose, sucrose]
Medium streaked with mixed MOI culture
  bacterial and viral growth / resistance to proteolysis by MOI: bacterial activity and viral replication at exponential rate
Resistance to proteolysis by MOI, ambient temperature (24° C.)
  Comparative Degree of Resistance: 5.0 h
Resistance to proteolysis by MOI, ambient temperature (24° C.), 5% Sucrose = 1.0
  Relative Resistance: 1.0
